In paper PMC7795089, “Antimalarials and Phytotoxins from Botryosphaeria dothidea Identified from a Seed of Diseased Torreya taxifolia” (Molecules, 2020):
Like-named read-outs stand apart in the source and are kept apart here.

Assays:
[1] = In vitro cytotoxicity assay (neutral red), Vero cells; format: cell-based; conditions: African green monkey, Vero cells (kidney fibroblasts)
Experimental: (§1) Cells were seeded to the wells of a 96-well plate at a density of 25,000 cells/well and incubated for 24 h. Samples at different concentrations were added and plates were again incubated for 48 h. The number of viable cells was determined by using neutral red dye and IC50 values were obtained from dose response curves. Doxorubicin was used as a positive control.

[2] = system: Plasmodium falciparum D6 (chloroquine-sensitive) strain; test: In vitro antiplasmodial assay, chloroquine-sensitive (D6) clone; format: cell-based; conditions: for IC50: Plasmodium falciparum
[3] = system: Plasmodium falciparum W2 (chloroquine-resistant) strain; test: microbe, parasite or virus in culture; format: cell-based; conditions: for IC50: Plasmodium falciparum
Bacillus subtilis = system: Bacillus subtilis; set-up: method as in PMID 30935798; conditions: enantiomers and racemate of compound 2; cited from earlier work
[4] = system: human leukemia HL-60 cells; set-up: method as in PMID 30935798; conditions: enantiomers and racemate of compound 2; comparable to positive control irinotecan; cited from earlier work
[5] = In vitro cytotoxicity assay (neutral red), SK-MEL; format: cell-based; conditions: human, SK-MEL cells (malignant melanoma), 48 h incubation, read-out: Cytotoxic activity IC50, SK-MEL
Experimental: as §1

[6] = In vitro cytotoxicity assay (neutral red), KB; format: cell-based; conditions: human, KB cells (oral epidermal carcinoma), 48 h incubation, read-out: Cytotoxic activity IC50, KB
Experimental: as §1

[7] = In vitro cytotoxicity assay (neutral red), BT-549; format: cell-based; conditions: human, BT-549 cells (breast ductal carcinoma), 48 h incubation, read-out: Cytotoxic activity IC50, BT-549
Experimental: as §1

[8] = In vitro cytotoxicity assay (neutral red), SK-OV-3; format: cell-based; conditions: human, SK-OV-3 cells (ovarian carcinoma), 48 h incubation, read-out: Cytotoxic activity IC50, SK-OV-3
Experimental: as §1

[9] = In vitro cytotoxicity assay (neutral red), LLC-PK11; format: cell-based; conditions: pig, 48 h incubation, read-out: Cytotoxic activity IC50, LLC-PK11
Experimental: as §1

Plasmodium = system: Plasmodium; set-up: method as in PMID 32043422; conditions: cited from earlier work
[10] = D6, read-out: Chloroquine-Sensitive (D6)-Clone IC50
[11] = W2, read-out: Chloroquine-Resistant (W2)-Clone IC50

## C[C@@H]1CC[C@H]2[C@@H](C)C(=O)O[C@@H]3O[C@@]4(C)CC[C@@H]1[C@]32OO4 [Artemisinin]
[1]
  IC50 at 48 h: > 4.76 µg/mL

## CCN(CC)CCCC(C)Nc1ccnc2cc(Cl)ccc12 (stereo not shown) [Chloroquine]
[2]; [10]
  IC50: 0.016 µg/mL
[2]; D6, read-out: Chloroquine-Sensitive (D6)-Clone IC50 (µM, in parentheses)
  IC50: 0.03 µM
[3]; [11]
  IC50: 0.16 µg/mL
[3]; W2, read-out: Chloroquine-Resistant (W2)-Clone IC50 (µM, in parentheses)
  IC50: 0.31 µM
[1]
  IC50 at 48 h: > 4.76 µg/mL

## CC1=CC(=O)C2(OC2C(=O)CC(C)C)C(=O)N1 (stereo not shown) [Compound 2, flavipucine]
Bacillus subtilis
  antibacterial activity against Bacillus subtilis: moderate antibacterial activity
[4]
  cytotoxic activity against human leukemia HL-60 cells: strong cytotoxic activity

## C\C=C(/C=C(C)/C=C/CC/C=C(\C)C(=O)C1=CC(C)(OC)NC1=O)C(=O)OC (stereo not shown) [Compound 3, dothilactaene A]
[2]; P. falciparum D6, concentration causing 50% growth inhibition, highest concentration tested […]
  Chloroquine-Sensitive (D6)-Clone IC50: inactive
[2]; [10]
  IC50: > 4.76 µg/mL
[3]; P. falciparum W2, concentration causing 50% growth inhibition, highest concentration tested […]
  Chloroquine-Resistant (W2)-Clone IC50: inactive
[3]; [11]
  IC50: > 4.76 µg/mL
[1]
  IC50 at 48 h: > 4.76 µg/mL

## COc1cccc2c1C(=O)c1c(O)c3c(c(O)c1C2=O)C[C@@](O)(C(=O)CO)C[C@@H]3O[C@H]1C[C@H](N)[C@H](O)[C@H](C)O1 [Doxorubicin]
[5]
  IC50 at 48 h: 1290 nM
[6]
  IC50 at 48 h: 2120 nM
[7]
  IC50 at 48 h: 1830 nM
[8]
  IC50 at 48 h: 1470 nM
[9]
  IC50 at 48 h: 1280 nM

## C\C=C(/C=C(C)/C=C/C=C/C=C(\C)C(=O)[C@H]1C(=O)N[C@]2(O)CCO[C@H]12)C(=O)OC [lucilactaene]
Plasmodium
  antiplasmodial activity: potent antiplasmodial activity
